Patent US11465987B2, “Compounds for treatment of cancer” (ONCTERNAL THERAPEUTICS, INC., priority 2012, dated 2022)

Test system: PC-3 human prostate cancer cell line
Assay: cells
Conditions: Homo sapiens, read-out: IC50 PC-3
Excerpt: Cells were stained with SRB solution.

| SMILES | IC50 [nM] |
| --- | --- |
| COc1cc(C(=O)[C@@H]2CSC(c3ccc(O[Si](C)(C)C(C)(C)C)cc3)=N2)cc(OC)c1OC [58a, (R)-(2-(4-(tert-Butyldimethylsilyloxy)phenyl)-4,5-dihydrothiazol-4-yl)(3,4,5-trimethoxyphenyl)methanone] | 183 ± 24 |
| COc1cc(C(=O)c2csc(-c3cc4ccccc4[nH]3)n2)cc(OC)c1OC [62a, (2-(1H-indol-2-yl)thiazol-4-yl)(3,4,5-trimethoxyphenyl)methanone] | 24 |
| COc1cc(/C(=C/C#N)c2csc(-c3ccccc3)n2)cc(OC)c1OC [2c-trans, (Z)-3-(2-phenylthiazol-4-yl)-3-(3,4,5-trimethoxyphenyl)acrylonitrile] | 890 |
| COc1cc(/C=C/c2csc(-c3ccccc3)n2)cc(OC)c1OC [3b, (E)-2-Phenyl-4-(3,4,5-trimethoxystyryl)thiazole] | > 10000 |
| COc1cc(/C(=C\C#N)c2csc(-c3ccccc3)n2)cc(OC)c1OC [2c-cis, (E)-3-(2-phenylthiazol-4-yl)-3-(3,4,5-trimethoxyphenyl)acrylonitrile] | ~10000 |

Same assay, conditions: Homo sapiens, read-out: IC50 PC-3, SRB assay, prostate cancer PC-3

| SMILES | IC50 [nM] |
| --- | --- |
| COc1cc(C(=O)c2csc(-c3ccc(CNC(=O)OC(C)(C)C)cc3)n2)cc(OC)c1OC [68a, tert-Butyl 4-(4-(3,4,5-trimethoxybenzoyl)thiazol-2-yl)benzylcarbamate] | 3100 |
| COc1cc(S(=O)(=O)c2cccc(-c3ccccc3)c2)cc(OC)c1OC [4b, 3-(3,4,5-Trimethoxyphenylsulfonyl)biphenyl] | > 10000 |
| CO/N=C(/c1cc(OC)c(OC)c(OC)c1)c1csc(-c2ccccc2)n1 [2f-cis, (Z)-(2-Phenylthiazol-4-yl)(3,4,5-trimethoxyphenyl)methanone O-methyl oxime] | > 10000 |
| COc1cc(C(=O)c2cc(-c3ccccc3)n[nH]2)cc(OC)c1OC [1k, (3-Phenyl-1H-pyrazol-5-yl)(3,4,5-trimethoxyphenyl)methanone] | 101 |
| COc1cc(C(=C(C)C)c2csc(-c3ccccc3)n2)cc(OC)c1OC [2a, 4-(2-Methyl-1-(3,4,5-trimethoxyphenyl)prop-1-enyl)-2-phenylthiazole] | 2470 |
| COc1cc(/C(=N/N)c2csc(-c3ccccc3)n2)cc(OC)c1OC [2d-cis, (Z)-4-(hydrazono(3,4,5-trimethoxyphenyl)methyl)-2-phenylthiazole] | 1120 |
| COc1cc(C(=O)c2c[nH]c(Nc3ccccc3)n2)cc(OC)c1OC [5e, (2-(phenylamino)-1H-imidazol-4-yl)(3,4,5-trimethoxyphenyl)methanone] | > 1000 |
| COc1cc(C(=O)c2cn(C(c3ccccc3)(c3ccccc3)c3ccccc3)c(Nc3ccccc3)n2)cc(OC)c1OC [e, (2-(Phenylamino)-1-trityl-1H-imidazol-4-yl)(3,4,5 trimethoxyphenyl)methanone] | > 1000 |
| COc1cc(NS(=O)(=O)c2cccc(-c3ccccc3)c2)cc(OC)c1OC [4d, N-(3,4,5-Trimethoxyphenyl)biphenyl-3-sulfonamide] | > 10000 |
| COc1cc(/C(=N\N)c2csc(-c3ccccc3)n2)cc(OC)c1OC [2d-trans, (E)-4-(hydrazono(3,4,5-trimethoxyphenyl)methyl)-2-phenylthiazole] | 1040 |
| CO/N=C(\c1cc(OC)c(OC)c(OC)c1)c1csc(-c2ccccc2)n1 [2f-trans, (E)-(2-Phenylthiazol-4-yl)(3,4,5-trimethoxyphenyl)methanone O-methyl oxime] | > 10000 |
| COc1cc([S+]([O-])c2cccc(-c3ccccc3)c2)cc(OC)c1OC (stereo not shown) [4c, 3-(3,4,5-Trimethoxyphenylsulfinyl)biphenyl] | > 10000 |
| c1ccc(Nc2nccn2C(c2ccccc2)(c2ccccc2)c2ccccc2)cc1 [d, N-Phenyl-1-trityl-1H-imidazol-2-amine] | > 1000 |
| COc1cc(C(=O)c2csc(Nc3ccc(F)cc3)n2)cc(OC)c1OC [5c, (2-(p-fluorophenylamino)thiazol-4-yl)(3,4,5-trimethoxyphenyl)methanone] | 43 ± 1 |
| COc1cc(C(=O)Nc2csc(-c3ccccc3)n2)cc(OC)c1OC [2h, 3,4,5-Trimethoxy-N-(2-phenylthiazol-4-yl)benzamide] | > 10000 |
| COc1cc(-c2csc(-c3ccccc3)n2)cc(OC)c1OC [2i, 2-Phenyl-4-(3,4,5-trimethoxyphenyl)thiazole] | > 10000 |
| COc1cc(C(=O)c2csc(Nc3ccc(Cl)cc3)n2)cc(OC)c1OC [5d, (2-(4-chlorophenylamino)thiazol-4-yl)(3,4,5-trimethoxyphenyl)methanone] | 33 ± 1 |
| COc1cc(C(=O)c2csc(Nc3ccccc3)n2)cc(OC)c1OC [5a, (2-(phenylamino)thiazol-4-yl)(3,4,5-trimethoxyphenyl)methanone] | 57 ± 3 |

Same assay, conditions: Homo sapiens, read-out: IC50 ± SEM, PC-3

| SMILES | IC50 [nM] |
| --- | --- |
| COc1cc(C(=O)c2cn(S(=O)(=O)c3ccccc3)c(-c3ccc4c(c3)cc(C(=O)c3cc(OC)c(OC)c(OC)c3)n4S(=O)(=O)c3ccccc3)n2)cc(OC)c1OC [16xaa, (1-(phenylsulfonyl)-2-(1-(phenylsulfonyl)-2-(3,4,5-trimethoxybenzoyl)-1H-indol-5-yl)-1H-imidazol-4-yl)(3,4,5-trimethoxyphenyl)methanone] | > 10000 |

Same assay, conditions: Homo sapiens, read-out: IC50 ± SEM, PC-3, Table 6A

| SMILES | IC50 [nM] |
| --- | --- |
| COc1cc(C(=NC#N)c2csc(-c3ccccc3)n2)cc(OC)c1O [compound 32, N-((4-hydroxy-3,5-dimethoxyphenyl)(2-phenylthiazol-4-yl)methylene)cyanamide] | 2290 |

Same assay, conditions: Homo sapiens, read-out: IC50 ± SEM, PC-3, Table 12

| SMILES | IC50 [nM] |
| --- | --- |
| CN(C)c1ccc(-c2nc(C(=O)c3ccc(F)cc3)c[nH]2)cc1 [12gb, (2-(4-(dimethylamino)phenyl)-1H-imidazol-4-yl)(4-fluorophenyl)methanone] | 81 |
| COc1cc(C(=O)c2c[nH]c(-c3ccc(C(F)(F)F)cc3)n2)cc(OC)c1OC [12pa, (2-(4-(trifluoromethyl)phenyl)-1H-imidazol-4-yl)(3,4,5-trimethoxyphenyl)methanone] | 127 |
| O=C(c1cc(O)c(O)c(O)c1)c1c[nH]c(-c2cc(O)c(O)c(O)c2)n1 [13ea, (3,4,5-trihydroxyphenyl)(2-(3,4,5-trihydroxyphenyl)-1H-imidazol-4-yl)methanone] | > 10000 |

Same assay, conditions: Homo sapiens, read-out: IC50 ± SEM, PC-3, Table 13

| SMILES | IC50 [nM] |
| --- | --- |
| COc1ccc(C(=O)c2cn(S(=O)(=O)c3ccccc3)c(-c3ccccc3)n2)cc1 [11ab, (4-methoxyphenyl)(2-phenyl-1-(phenylsulfonyl)-1H-imidazol-4-yl)methanone] | > 10000 |
| Cc1ccc(-c2nc(C(=O)c3ccc(F)cc3)cn2S(=O)(=O)c2ccccc2)cc1 [11db, (4-fluorophenyl)(1-(phenylsulfonyl)-2-(p-tolyl)-1H-imidazol-4-yl)methanone] | 80 |
| O=C(c1cccc(F)c1)c1cn(S(=O)(=O)c2ccccc2)c(-c2ccccc2)n1 [11ag, (3-fluorophenyl)(2-phenyl-1-(phenylsulfonyl)-1H-imidazol-4-yl)methanone] | > 10000 |
| COc1cccc(C(=O)c2cn(S(=O)(=O)c3ccccc3)c(-c3ccccc3)n2)c1 [11ac, (3-methoxyphenyl)(2-phenyl-1-(phenylsulfonyl)-1H-imidazol-4-yl)methanone] | > 10000 |
| COc1ccc(-c2nc(C(=O)c3ccc(F)cc3)cn2C)cc1 [12cba, (4-fluorophenyl)(2-(4-methoxyphenyl)-1-methyl-1H-imidazol-4-yl)methanone] | > 10000 |
| Cc1ccc(C(=O)c2cn(S(=O)(=O)c3ccccc3)c(-c3ccccc3)n2)cc1 [11ah, (2-phenyl-1-(phenylsulfonyl)-1H-imidazol-4-yl)(p-tolyl)methanone] | > 10000 |
